Among the data in PubChem BioAssay AID330 (DTP/NCI, 2004) are T/C values, retold here.

“And” between values parts separate entries of the source, which are not always exact repeats. Equal entries are not always repeated. Inconclusive results and toxic doses are left out.

The subject of this assay is P388 leukemia ip, CD2F1 mice, survival T/C. Briefly: NCI In Vivo Anticancer Drug Screen. Data for tumor model P388 Leukemia (intraperitoneal) in CD2F1 (CDF1) mice. Particulars: endpoint: median survival time, higher = longer survival. In short, it runs like this: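 Mice carrying the transplanted tumor received test compound or vehicle. Survival was recorded in each group, and the value is the treated-group measurement divided by that of the vehicle-treated control group.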

[1] abbreviates: dose: 12.5 mg/kg/injection, schedule: Q01DX009 (ip), vehicle: saline with Tween-80.
Setting [2] is: dose: 25.0 mg/kg/injection, schedule: Q01DX009 (ip), vehicle: saline with Tween-80.
Where [3] appears, read: dose: 50.0 mg/kg/injection, schedule: Q01DX009 (ip), vehicle: Klucel (hydroxypropylcellulose) (HPC).
Where [4] appears, read: dose: 100.0 mg/kg/injection, schedule: Q01DX009 (ip), vehicle: Klucel (hydroxypropylcellulose) (HPC).
[5] abbreviates: dose: 200.0 mg/kg/injection, schedule: Q01DX009 (ip), vehicle: Klucel (hydroxypropylcellulose) (HPC).
Where [6] appears, read: dose: 60.0 mg/kg/injection, schedule: Q01DX005 (ip), vehicle: Klucel (hydroxypropylcellulose) (HPC).
Setting [7] is: dose: 120.0 mg/kg/injection, schedule: Q01DX005 (ip), vehicle: Klucel (hydroxypropylcellulose) (HPC).
Setting [8] is: dose: 60.0 mg/kg/injection, schedule: Q01DX005 (ip), vehicle: saline with Tween-80.
Setting [9] is: dose: 120.0 mg/kg/injection, schedule: Q01DX005 (ip), vehicle: saline with Tween-80.
Where [10] appears, read: dose: 240.0 mg/kg/injection, schedule: Q01DX005 (ip), vehicle: saline with Tween-80.
The mark [11] stands for this setting: dose: 12.5 mg/kg/injection, schedule: Q01DX005 (ip), vehicle: Klucel (hydroxypropylcellulose) (HPC).
Where [12] appears, read: dose: 25.0 mg/kg/injection, schedule: Q01DX005 (ip), vehicle: Klucel (hydroxypropylcellulose) (HPC).
The mark [13] stands for this setting: dose: 50.0 mg/kg/injection, schedule: Q01DX005 (ip), vehicle: Klucel (hydroxypropylcellulose) (HPC).
[14] abbreviates: dose: 100.0 mg/kg/injection, schedule: Q01DX005 (ip), vehicle: Klucel (hydroxypropylcellulose) (HPC).
[15] abbreviates: dose: 200.0 mg/kg/injection, schedule: Q01DX005 (ip), vehicle: Klucel (hydroxypropylcellulose) (HPC).
[16] abbreviates: dose: 50.0 mg/kg/injection, schedule: Q01DX009 (ip), vehicle: saline with Tween-80.
The mark [17] stands for this setting: dose: 100.0 mg/kg/injection, schedule: Q01DX009 (ip), vehicle: saline with Tween-80.
Where [18] appears, read: dose: 200.0 mg/kg/injection, schedule: Q01DX009 (ip), vehicle: saline with Tween-80.
Setting [19] is: dose: 50.0 mg/kg/injection, schedule: Q01DX005 (ip), vehicle: saline with Tween-80.
The mark [20] stands for this setting: dose: 100.0 mg/kg/injection, schedule: Q01DX005 (ip), vehicle: saline with Tween-80.
[21] abbreviates: dose: 200.0 mg/kg/injection, schedule: Q01DX005 (ip), vehicle: saline with Tween-80.
[22] abbreviates: dose: 100.0 mg/kg/injection, schedule: Q04DX003 (ip), vehicle: saline with Tween-80.
Where [23] appears, read: dose: 400.0 mg/kg/injection, schedule: Q04DX003 (ip), vehicle: saline with Tween-80.

`O=c1oc2ccccc2c(O)c1C=Nc1ccccc1`: the T/C was 89 % of control under setting [1] and 88 % of control under setting [2].
Regarding `Cc1nn(C(C)C(=O)N(C)C)c(Br)c1Br` (stereo unspecified), the T/C is 99 % of control under setting [3], 108 % of control under setting [4] and 111 % of control under setting [5].
Regarding `COC(=O)c1ccc(/C=C(\c2ccc([N+](=O)[O-])o2)S(=O)(=O)c2ccc(NC(C)=O)cc2)o1`, the T/C was 95 % of control (dose: 50.0 mg/kg/injection, schedule: Q01DX009 (ip), vehicle: suspension in saline) and 88 % of control (dose: 100.0 mg/kg/injection, schedule: Q01DX009 (ip), vehicle: suspension in saline).
Turning to `Cc1cccc(-n2c(-c3ccccc3)cs/c2=N\N=C2/CSC(=O)N2Cc2ccccc2)c1`, the T/C by setting is: (dose: 100.0 mg/kg/injection, schedule: Q01DX001 (ip), vehicle: Klucel (hydroxypropylcellulose) (HPC)) 101 % of control; (dose: 200.0 mg/kg/injection, schedule: Q01DX001 (ip), vehicle: Klucel (hydroxypropylcellulose) (HPC)) 101 % of control; (dose: 400.0 mg/kg/injection, schedule: Q01DX001 (ip), vehicle: Klucel (hydroxypropylcellulose) (HPC)) 99 % of control.
For the compound `Cc1nn(-c2ccccc2)c2c1C(=O)CC(C)O2` (stereo unspecified), the T/C is, setting by setting: under setting [6], 93 % of control; under setting [7], 91 % of control.
On to `S=C(CC(=S)N1CCOCC1)N1CCOCC1`, for which the T/C is, setting by setting: under setting [8], 103 % of control; under setting [9], 89 % of control; under setting [10], 97 % of control.
In the case of `CSc1cccc(NC(=O)Nc2onc(C)c2C)c1`, under setting [3], the T/C is 91 % of control.
As to `c1ccc(Cc2[nH]nc(-c3n[nH]c(Cc4ccccc4)c3-c3ccccc3)c2-c2ccccc2)cc1`, the T/C by setting is: under setting [8], 101 % of control; under setting [9], 103 % of control; under setting [10], 102 % of control.
In the case of `CCNC(=O)c1nnn2c1nc(N)c1cc(Cl)ccc12`, the T/C is, setting by setting: under setting [11], 96 % of control; under setting [12], 96 % of control; under setting [13], 95 % of control; under setting [14], 94 % of control; under setting [15], 88 % of control.
On to `CC1(C)CN(C(C)(C)C)CN2C1OCC2(C)C` (stereo unspecified), for which the T/C runs as follows: under setting [16], 101 % of control; under setting [17], 112 % of control; under setting [18], 112 % of control.
Consider `CC1(C)N=C(N)N=C(N)N1c1ccc(CCCCc2ccc(Cl)cc2Cl)cc1`, for which the T/C is 118 % of control (dose: 3.13 mg/kg/injection, schedule: Q01DX009 (ip), vehicle: saline with Tween-80) and 122 % of control under setting [1].
Take `CCCCC(CCCC)=NO`: the T/C by setting is: under setting [19], 108 % of control; under setting [20], 100 % of control.
`COc1ccc(Oc2cc3c(cc2OC)CCN(C)C3)cc1`: the T/C is 108 % of control (dose: 12.5 mg/kg/injection, schedule: Q01DX009 (ip), vehicle: saline); 104 % of control (dose: 25.0 mg/kg/injection, schedule: Q01DX009 (ip), vehicle: saline); 99 % of control and 107 % of control (dose: 50.0 mg/kg/injection, schedule: Q01DX009 (ip), vehicle: saline).
On to `CNc1ccccc1Br`, for which the T/C by setting is: under setting [19], 100 % of control; under setting [20], 100 % of control; under setting [21], 100 % of control.
Regarding `C=C(C)[Se]c1ccccc1`, the T/C by setting is: under setting [16], 100 % of control and 118 % of control; under setting [17], 101 % of control and 121 % of control.
For the compound `CCOc1cccc(Cc2c[nH]c(=O)[nH]c2=O)c1`, the T/C under setting [8] was 94 % of control, the T/C under setting [9] is 92 % of control and the T/C under setting [10] was 90 % of control.
Turning to `CCCCc1c[nH]n(C(N)=NCCSCc2nc[nH]c2C)c1=O`, the T/C reads like this: under setting [6], 94 % of control; under setting [7], 98 % of control; (dose: 240.0 mg/kg/injection, schedule: Q01DX005 (ip), vehicle: Klucel (hydroxypropylcellulose) (HPC)) 93 % of control.
As to `O=C(NCCc1ccccc1)c1ccccc1`, the T/C by setting is: (dose: 50.0 mg/kg/injection, schedule: Q04DX003 (ip), vehicle: saline with Tween-80) 100 % of control; under setting [22], 90 % of control; (dose: 200.0 mg/kg/injection, schedule: Q04DX003 (ip), vehicle: saline with Tween-80) 95 % of control; under setting [23], 100 % of control.
With `O=C1[C@H]2CCC[C@H]2[C@H]2CCC[C@@H]12`, the T/C runs as follows: under setting [2], 112 % of control; under setting [17], 119 % of control; under setting [18], 105 % of control.
As for `CCC(/C=C/c1ccccc1)=N\NC(=O)c1ccccc1`, the T/C under setting [19] is 96 % of control, the T/C under setting [20] is 96 % of control and the T/C under setting [21] was 95 % of control.
As to `COCCCNS(=O)(=O)c1ncnc2nc[nH]c12`, the T/C runs as follows: (dose: 100.0 mg/kg/injection, schedule: Q01DX009 (ip), vehicle: saline) 104 % of control; under setting [22], 108 % of control; (dose: 200.0 mg/kg/injection, schedule: Q01DX009 (ip), vehicle: saline) 100 % of control; (dose: 400.0 mg/kg/injection, schedule: Q01DX009 (ip), vehicle: saline) 86 % of control; under setting [23], 108 % of control.
Take `Nc1ccccc1.O=C([CH-]C(=O)C(F)(F)F)c1ccccc1.O=C([CH-]C(=O)C(F)(F)F)c1ccccc1.O=C([CH-]C(=O)C(F)(F)F)c1ccccc1.O=C([CH-]C(=O)C(F)(F)F)c1ccccc1.[Eu+3]`: the T/C was 100 % of control under setting [4] and 103 % of control under setting [5].
As to `COC(=O)C1(c2ccccc2)N=C(c2ccc(C)cc2)ON1c1ccccc1` (stereo unspecified), the T/C runs as follows: under setting [8], 107 % of control; under setting [9], 95 % of control; under setting [10], 92 % of control.
As to `O=C1C=C(N(CCCl)CCCl)C(=O)C=C1N(CCCl)CCCl`, the T/C reads like this: (dose: 50.0 mg/kg/injection, schedule: Q04DX003 (ip), vehicle: Klucel (hydroxypropylcellulose) (HPC)) 101 % of control; (dose: 200.0 mg/kg/injection, schedule: Q04DX003 (ip), vehicle: Klucel (hydroxypropylcellulose) (HPC)) 178 % of control.
Take `CC1NC(=O)OC12CCCCC2` (stereo unspecified): the T/C was 93 % of control under setting [2] and 100 % of control under setting [16].
For the compound `COP(=O)(CC(=O)NCc1cc(C(C)(C)C)c(O)c(C(C)(C)C)c1)OC`, the T/C is 110 % of control under setting [16], 103 % of control under setting [17] and 100 % of control under setting [18].
`Cc1cc([N+](=O)[O-])ccc1NC(=O)n1nnc2cc(Cl)ccc21`: the T/C was 98 % of control under setting [3], 98 % of control under setting [4] and 107 % of control under setting [5].
Regarding `CC1=CSCC(=O)N1`, the T/C under setting [17] was 104 % of control and the T/C under setting [18] is 95 % of control.
As to `c1cnc2ccc3ncccc3c2c1`, the T/C runs as follows: under setting [11], 99 % of control; under setting [12], 96 % of control; under setting [13], 100 % of control and 97 % of control.
`CC1=C(O)C(=O)[C@@H]2O[C@@H]2C1=O`: the T/C reads like this: (dose: 1.5 mg/kg/injection, schedule: Q01DX007 (ip), vehicle: saline) 111 % of control; (dose: 3.0 mg/kg/injection, schedule: Q01DX007 (ip), vehicle: saline) 122 % of control; (dose: 6.0 mg/kg/injection, schedule: Q01DX007 (ip), vehicle: saline) 122 % of control.
As for `N#CC1Sc2ccccc2N1C(=O)c1ccccc1` (stereo unspecified), the T/C reads like this: under setting [19], 103 % of control; under setting [20], 100 % of control; under setting [21], 98 % of control.
In the case of `CC(/C=C/c1ccc(Cl)c(Cl)c1)=N\NC(N)=S`, the T/C under setting [8] was 121 % of control.
With `Cc1cc2nc(-c3cc4cc(Cl)cc(Cl)c4oc3=O)[nH]c2cc1C`, the T/C was 98 % of control under setting [12], 95 % of control under setting [13], 96 % of control under setting [14] and 96 % of control under setting [15].
